This note sets out measurements from ChEMBL document CHEMBL1201862, “PubChem BioAssay data set” (2004).

For test [1], the target named is Protein Wnt-3a (Mus musculus, UniProt P27467). The experiment in a line: Wnt3a-driven reporter signaling inhibition, dose response, selectivity assay for Gli-SUFU antagonist project, Wnt-LIGHT cells, luminescence (AID 651570).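 Note: Wnt-LIGHT reporter cells stimulated with conditioned medium from Wnt3a-producing cells.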 The following applies: read-out: IC50_Mean. It counts as functional.
Sequence of Protein Wnt-3a (P27467 whole entry): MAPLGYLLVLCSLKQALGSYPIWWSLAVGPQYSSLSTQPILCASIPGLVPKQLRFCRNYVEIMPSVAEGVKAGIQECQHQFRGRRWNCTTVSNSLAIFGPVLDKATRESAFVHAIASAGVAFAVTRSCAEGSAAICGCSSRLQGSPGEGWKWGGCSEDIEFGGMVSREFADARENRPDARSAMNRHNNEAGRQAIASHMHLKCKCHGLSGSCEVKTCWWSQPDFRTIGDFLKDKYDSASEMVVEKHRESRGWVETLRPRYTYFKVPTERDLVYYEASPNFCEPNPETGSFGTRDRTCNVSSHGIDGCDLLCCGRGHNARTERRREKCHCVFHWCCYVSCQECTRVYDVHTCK
Test [2] concerns the target T1, Corticotropin-releasing factor receptor 2/Corticotropin-releasing factor-binding protein (Homo sapiens, UniProt P24387+Q13324).
T1 sequence (Q13324 whole entry): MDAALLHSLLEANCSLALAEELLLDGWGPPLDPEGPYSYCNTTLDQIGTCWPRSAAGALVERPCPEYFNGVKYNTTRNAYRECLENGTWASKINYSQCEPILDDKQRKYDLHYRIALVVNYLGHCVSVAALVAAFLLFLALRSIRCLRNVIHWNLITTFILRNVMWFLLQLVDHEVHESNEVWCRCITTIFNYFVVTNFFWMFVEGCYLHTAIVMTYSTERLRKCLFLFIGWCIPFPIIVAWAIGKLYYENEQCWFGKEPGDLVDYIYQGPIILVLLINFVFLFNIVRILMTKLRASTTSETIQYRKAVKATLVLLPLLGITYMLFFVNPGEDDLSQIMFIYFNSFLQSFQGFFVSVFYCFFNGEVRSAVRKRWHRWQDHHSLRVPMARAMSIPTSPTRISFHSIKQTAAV
T1 sequence (P24387 whole entry): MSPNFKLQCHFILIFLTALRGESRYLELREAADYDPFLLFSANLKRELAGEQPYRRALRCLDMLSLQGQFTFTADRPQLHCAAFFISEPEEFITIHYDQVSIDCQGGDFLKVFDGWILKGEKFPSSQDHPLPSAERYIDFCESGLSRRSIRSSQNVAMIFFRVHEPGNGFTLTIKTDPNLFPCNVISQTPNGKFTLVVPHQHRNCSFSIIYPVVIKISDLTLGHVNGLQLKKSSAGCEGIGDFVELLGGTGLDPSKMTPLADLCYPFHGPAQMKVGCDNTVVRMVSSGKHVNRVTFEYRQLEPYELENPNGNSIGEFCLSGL
Briefly: activators of CRF receptor 2 with binding protein – uHTS hits, confirmation (AID 602473). In kind it is functional. The following applies: read-out: EC50_Mean.

The target of test [3] is Phospholipase A2 (Homo sapiens, UniProt P04054). In kind it is functional.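 Note: confirmatory dose-response counterscreen on phospholipase A2, testing hits that came from an ultra-high-throughput screen for ATG4B inhibitors.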
Sequence of Phospholipase A2 (P04054 whole entry): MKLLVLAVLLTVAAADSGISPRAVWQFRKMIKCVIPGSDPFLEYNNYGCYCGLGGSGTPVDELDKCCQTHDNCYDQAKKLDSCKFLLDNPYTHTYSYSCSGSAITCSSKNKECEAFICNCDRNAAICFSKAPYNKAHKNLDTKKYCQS
Test [4] is described as follows: HeLa cell cytotoxicity, dose response, cytotoxicity control for MgcRacGAP inhibitor project (AID 624300). In kind it is functional.
In test [5] the target is T2, Rac GTPase-activating protein 1 (Homo sapiens, UniProt Q9H0H5).
T2 sequence (Q9H0H5 whole entry): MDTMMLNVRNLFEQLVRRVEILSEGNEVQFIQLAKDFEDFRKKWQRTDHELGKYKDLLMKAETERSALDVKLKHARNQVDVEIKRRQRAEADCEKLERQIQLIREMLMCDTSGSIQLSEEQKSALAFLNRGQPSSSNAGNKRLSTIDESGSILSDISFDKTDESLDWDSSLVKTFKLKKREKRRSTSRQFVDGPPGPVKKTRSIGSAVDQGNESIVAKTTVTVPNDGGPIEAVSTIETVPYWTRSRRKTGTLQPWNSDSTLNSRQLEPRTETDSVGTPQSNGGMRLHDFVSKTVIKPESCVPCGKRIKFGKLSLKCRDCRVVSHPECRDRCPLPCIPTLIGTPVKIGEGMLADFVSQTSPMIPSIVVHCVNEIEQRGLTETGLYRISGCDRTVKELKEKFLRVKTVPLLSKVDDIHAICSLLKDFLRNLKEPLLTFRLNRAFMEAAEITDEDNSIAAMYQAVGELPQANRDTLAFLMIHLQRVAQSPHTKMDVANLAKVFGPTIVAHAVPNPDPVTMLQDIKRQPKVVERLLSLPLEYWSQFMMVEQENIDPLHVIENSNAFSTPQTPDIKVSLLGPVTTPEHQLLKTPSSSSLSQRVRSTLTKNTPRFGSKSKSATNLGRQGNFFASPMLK
The experiment in a line: MgcRacGAP GTPase-activating activity inhibitors, confirmation, biochemical, ADP Hunter fluorescence, primary and confirmatory (AID 624330). In kind it is functional.

In test [6] the target is T3, Cysteine protease ATG4B (Homo sapiens, UniProt Q9Y4P1).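 Note: Fluorescence-based dose-response confirmation assay measuring inhibition of ATG4B activity.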
T3 sequence (Q9Y4P1 whole entry): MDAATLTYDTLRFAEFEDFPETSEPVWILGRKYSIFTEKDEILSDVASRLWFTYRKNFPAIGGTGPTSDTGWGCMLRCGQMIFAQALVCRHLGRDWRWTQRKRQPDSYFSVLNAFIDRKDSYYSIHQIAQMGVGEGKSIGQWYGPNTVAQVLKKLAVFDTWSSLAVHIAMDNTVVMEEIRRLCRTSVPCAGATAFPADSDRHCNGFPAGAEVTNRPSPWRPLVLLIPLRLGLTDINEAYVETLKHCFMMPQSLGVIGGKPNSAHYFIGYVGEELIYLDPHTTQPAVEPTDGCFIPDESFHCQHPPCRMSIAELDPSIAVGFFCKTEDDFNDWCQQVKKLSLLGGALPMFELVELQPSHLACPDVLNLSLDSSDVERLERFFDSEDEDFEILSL
It counts as functional.

In test [7] the target is T4, Long-chain-fatty-acid--AMP ligase FadD28 (Mycobacterium tuberculosis, UniProt P9WQ59).
T4 sequence (P9WQ59 whole entry): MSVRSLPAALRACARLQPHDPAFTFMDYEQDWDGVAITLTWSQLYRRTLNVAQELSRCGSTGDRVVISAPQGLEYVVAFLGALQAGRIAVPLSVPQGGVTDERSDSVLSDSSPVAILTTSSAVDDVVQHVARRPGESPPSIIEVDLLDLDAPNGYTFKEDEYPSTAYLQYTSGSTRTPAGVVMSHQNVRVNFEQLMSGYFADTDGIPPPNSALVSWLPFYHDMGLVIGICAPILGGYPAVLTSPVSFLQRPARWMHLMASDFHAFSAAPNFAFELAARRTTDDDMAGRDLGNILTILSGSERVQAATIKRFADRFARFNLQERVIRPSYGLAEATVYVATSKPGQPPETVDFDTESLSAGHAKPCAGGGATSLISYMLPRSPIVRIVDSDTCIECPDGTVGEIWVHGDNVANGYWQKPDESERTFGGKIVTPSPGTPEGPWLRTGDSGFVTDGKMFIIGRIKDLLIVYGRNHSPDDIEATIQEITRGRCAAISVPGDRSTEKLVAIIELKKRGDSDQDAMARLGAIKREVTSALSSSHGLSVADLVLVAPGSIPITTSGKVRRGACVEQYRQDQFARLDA
The experiment in a line: Fluorescence polarization aasay to screen for inhibitors that compete for the binding of FadD28 to a bisubstrate Measured in Biochemical System Using Plate Reader - 2147-01_Inhibitor_Dose_CherryPick_Activity. It counts as functional, Mycobacterium tuberculosis H37Rv.

Test [8] has as its target 72 kDa type IV collagenase (Homo sapiens, UniProt P08253). The experiment in a line: Dose Response validation of uHTS RPN11 inhibitor hits using a MMP-2 Fluorescence assay. In kind it is functional.
Test [9] concerns the target 26S proteasome non-ATPase regulatory subunit 14 (Homo sapiens, UniProt O00487). The experiment in a line: inhibition of proteasome subunit RPN11 – biochemical, fluorescence polarization, uHTS hits, confirmation (AID 602368). In kind it is functional. In general terms: In fluorescence polarisation assays a small probe gives low polarisation when free and higher when bound to something large.

Test [10] addresses Prothrombin (Bos taurus, UniProt P00735). Briefly: thrombin inhibition, dose response, biochemical, fluorescence polarization, uHTS hits (AID 602369). In kind it is functional.
A short description of test [11]: P. falciparum Dd2 growth inhibitors, dose response, SYBR Green, cherry-picked samples (AID 1159567). It counts as functional, cell-based.

Active and inactive are the calls of the source. Numbered stars: 1 amine (or outer) side, 2 acyl side, 3 side chain; on linkers, the order of the positions; unused ones are H or OH. Square brackets hold non-standard residues; d marks the D form. Peptide text beside a SMILES is read from it. ξ: configuration not given here. X1 = CCCCCCC[C@H](O)C[C@@H](N[*:1])[C@@H](O)C(=O)[*:2]; X3 = COc1ccc(CCCC(N[*:1])C(=O)[*:2])cc1; ξThr(3R) = C[C@@H](O)C(N)C(=O)O; NMeN = CN[C@@H](CC(N)=O)C(=O)O; X2 = C/C=C(/N[*:1])C(=O)[*:2]; Dhb = C/C=C(\N)C(=O)O; Sar = CNCC(=O)O

Sequence of 26S proteasome non-ATPase regulatory subunit 14 (O00487 whole entry): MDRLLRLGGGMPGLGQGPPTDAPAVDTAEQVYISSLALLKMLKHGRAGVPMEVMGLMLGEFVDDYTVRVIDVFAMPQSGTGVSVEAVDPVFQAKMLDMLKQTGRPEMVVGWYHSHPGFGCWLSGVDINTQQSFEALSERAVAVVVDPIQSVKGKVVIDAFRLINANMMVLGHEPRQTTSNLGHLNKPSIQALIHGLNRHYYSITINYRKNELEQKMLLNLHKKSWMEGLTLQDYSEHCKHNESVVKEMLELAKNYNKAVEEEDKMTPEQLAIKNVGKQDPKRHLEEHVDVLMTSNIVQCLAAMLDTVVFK
Sequence of 72 kDa type IV collagenase (P08253 whole entry): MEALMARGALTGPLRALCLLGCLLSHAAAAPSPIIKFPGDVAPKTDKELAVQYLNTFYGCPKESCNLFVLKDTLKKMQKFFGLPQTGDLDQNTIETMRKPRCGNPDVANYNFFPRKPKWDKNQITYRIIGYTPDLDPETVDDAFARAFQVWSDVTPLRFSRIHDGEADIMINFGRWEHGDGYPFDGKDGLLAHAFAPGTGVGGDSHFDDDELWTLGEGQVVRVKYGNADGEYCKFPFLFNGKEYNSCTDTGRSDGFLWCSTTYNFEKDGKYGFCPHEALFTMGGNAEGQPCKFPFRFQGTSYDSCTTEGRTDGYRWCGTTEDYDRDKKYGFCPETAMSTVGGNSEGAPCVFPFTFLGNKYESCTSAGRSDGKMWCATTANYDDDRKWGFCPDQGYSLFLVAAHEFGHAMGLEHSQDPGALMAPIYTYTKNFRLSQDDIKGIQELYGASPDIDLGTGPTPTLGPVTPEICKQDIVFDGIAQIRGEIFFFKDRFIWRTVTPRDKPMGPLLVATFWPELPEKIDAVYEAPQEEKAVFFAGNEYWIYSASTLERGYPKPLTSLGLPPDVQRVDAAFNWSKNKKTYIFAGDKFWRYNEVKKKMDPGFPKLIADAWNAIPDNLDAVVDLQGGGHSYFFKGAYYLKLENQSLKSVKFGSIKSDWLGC

In the case of `Cc1cc(-c2ccccc2)cc(-c2ccccc2)[n+]1C`, the IC50 in test [1] was 5.02 µM (active).
As usually defined, the CC50 is the concentration giving 50% cytotoxicity. Regarding `O=C1NC(=S)S/C1=C\c1cc(Cl)cc(Cl)c1O`, the EC50 in test [2] is 7.19 µM (active). The IC50 was 14.8 µM (active) in test [3], 65.4 µM (active) in test [5] and 3.47 µM (active) in test [6]. Besides, the half-maximal cytotoxic concentration (CC50) in [4] was 100 µM (active).
For orientation: AC50 means the concentration giving half of the maximal activity seen. For `Cc1cccc(NC(=O)CN2C(=O)N/C(=C/c3cc(C)n(-c4ccncc4)c3C)C2=O)c1`, the AC50 in [7] was 18.7 µM (active).
Consider `Cc1ccc(C(=O)Nc2ccc(C(=O)N/N=C/c3cccnc3)cc2)cc1`, for which the IC50 in test [8] is > 100 µM (inactive); in [9], 30.5 µM (active); in [10], > 100 µM (inactive).
As to `COc1ccc(C#Cc2ccc3c(c2)O[C@@H](CN(C)C(=O)Nc2cccc(OC)c2)[C@H](C)CN([C@@H](C)CO)S3(=O)=O)cc1`, the figures for the IC50 in [8], in test [9] and in test [10] were > 100 µM (inactive), 30.5 µM (active) and 42.8 µM (active), respectively. The AC50 in test [11] was 3.01 µM (active).
With `O=C(CNC(=O)c1ccc([N+](=O)[O-])cc1)N/N=C/c1c[nH]c2ccccc12`, the concentration at half-maximal activity (AC50) in test [7] was 30.2 µM (active).
Still for that read-out and setting: the figure for `C/C=C1\NC(=O)[C@H](CC(N)=O)N(C)C(=O)C([C@@H](C)O)NC(=O)C(CCCc2ccc(OC)cc2)NC(=O)[C@H](C(C)C)NC(=O)/C(=C\C)NC(=O)[C@H](O)[C@@H](C[C@@H](O)CCCCCCC)NC(=O)[C@H](C)NC(=O)CN(C)C(=O)[C@H](CCC(N)=O)NC1=O` (stereo partly drawn) (cyclo(A[X1][X2]V[X3][ξThr(3R)][NMeN][Dhb]Q[Sar])) is > 100 µM (inactive).
